Measurements reported in ChEMBL document CHEMBL1201862, “PubChem BioAssay data set” (2004).
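Cultured in 96-well plates, cells were exposed to test compound for 48 hours across five concentrations. GI50: concentration for 50% inhibition of growth.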 Activity calls are given as the source filed them. Cut-off read from the data, not from the text of the source: active = GI50 up to about 1.1 µM and inactive = higher.

Legend:
Experiment in all cases: inhibition of tumour cell growth, NCI panel, 48 h
MOLT-4 = system: MOLT-4
SW-620 = system: SW-620
SF-268 = system: SF-268
HCT-116 = system: HCT-116
MDA-MB-231 = system: MDA-MB-231
PC-3 = system: PC-3
COLO 205 = system: COLO 205
OVCAR-8 = system: OVCAR-8
Hs-578T = system: Hs-578T
EKVX = system: EKVX
UACC-257 = system: UACC-257
OVCAR-3 = system: OVCAR-3
MCF7 = system: MCF7
KM12 = system: KM12
IGROV-1 = system: IGROV-1
MDA-MB-435 = system: MDA-MB-435
OVCAR-4 = system: OVCAR-4
RXF 393 = system: RXF 393
T47D = system: T47D

| SMILES | GI50 (MOLT-4) | GI50 (SW-620) | GI50 (SF-268) | GI50 (HCT-116) | GI50 (MDA-MB-231) | GI50 (PC-3) | GI50 (COLO 205) | GI50 (OVCAR-8) | GI50 (Hs-578T) | GI50 (EKVX) | GI50 (UACC-257) | GI50 (OVCAR-3) | GI50 (MCF7) | GI50 (KM12) | GI50 (IGROV-1) | GI50 (MDA-MB-435) | GI50 (OVCAR-4) | GI50 (RXF 393) | GI50 (T47D) |
| --- | --- | --- | --- | --- | --- | --- | --- | --- | --- | --- | --- | --- | --- | --- | --- | --- | --- | --- | --- |
| COc1cccc2c3ccccc3c3nc[nH]c3c12 | 9.08 µM (inactive) | 22.5 µM (inactive) | 62.1 µM (inactive) | 29.8 µM (inactive) | 25.4 µM (inactive) | 30.8 µM (inactive) | 17.9 µM (inactive) | > 100 µM (inactive) | < 0.01 µM (active) | > 48.3 µM (inactive) | 23.6 µM (inactive) | > 100 µM (inactive) | 47.4 µM (inactive) | 18.7 µM (inactive) | 41.4 µM (inactive) | 31.6 µM (inactive) | > 88.7 µM (inactive) | 17.5 µM (inactive) | > 50.4 µM (inactive) |
| COc1ccc(C(=O)/C=C/c2cc(O)c(O)c(F)c2F)c(OC)c1 | – | 15.4 µM (inactive) | 18.6 µM (inactive) | 6.95 µM (inactive) | 18.8 µM (inactive) | 12.3 µM (inactive) | 15.6 µM (inactive) | 20.8 µM (inactive) | 61.4 µM (inactive) | 25 µM (inactive) | 15.9 µM (inactive) | 5.48 µM (inactive) | 3.22 µM (inactive) | 11.4 µM (inactive) | 19.8 µM (inactive) | 17.9 µM (inactive) | 19 µM (inactive) | 18.2 µM (inactive) | 15.2 µM (inactive) |
| COC1CC(OC2C(C)OC(OC3C(C)OC(OC4C(C)OC(O[C@H]5CC[C@@]6(C)C(=CC[C@]7(O)[C@@H]6C[C@@H](O)[C@@]6(C)[C@]7(O)CC[C@@]6(O)C(C)=O)C5)CC4OC)CC3OC)CC2OC)OC(C)C1O (stereo partly specified) | > 12.5 µM (inactive) | > 12.5 µM (inactive) | > 12.5 µM (inactive) | > 12.5 µM (inactive) | > 12.5 µM (inactive) | > 12.5 µM (inactive) | > 12.5 µM (inactive) | > 12.5 µM (inactive) | > 12.5 µM (inactive) | > 12.5 µM (inactive) | > 12.5 µM (inactive) | > 12.5 µM (inactive) | > 12.5 µM (inactive) | > 12.5 µM (inactive) | > 12.5 µM (inactive) | > 12.5 µM (inactive) | > 12.5 µM (inactive) | – | > 12.5 µM (inactive) |
| COC(=O)C(CCc1ccccc1I)C1=CCC2(CC1)OCCO2 (stereo unspecified) | 49.8 µM (inactive) | 40.4 µM (inactive) | 57.9 µM (inactive) | – | 65.5 µM (inactive) | 27 µM (inactive) | 57.9 µM (inactive) | 42 µM (inactive) | 37.6 µM (inactive) | 70.8 µM (inactive) | 29.4 µM (inactive) | 29.4 µM (inactive) | 32.7 µM (inactive) | 33.1 µM (inactive) | 96.2 µM (inactive) | 27.1 µM (inactive) | 40.1 µM (inactive) | 17.9 µM (inactive) | 15.8 µM (inactive) |
| N#CCCN(C(=O)Nc1ccc(NC(=O)N(CCC#N)c2ccccc2)cc1)c1ccccc1 | > 100 µM (inactive) | > 100 µM (inactive) | > 100 µM (inactive) | > 100 µM (inactive) | > 100 µM (inactive) | > 100 µM (inactive) | > 100 µM (inactive) | > 100 µM (inactive) | > 100 µM (inactive) | > 100 µM (inactive) | – | > 100 µM (inactive) | > 100 µM (inactive) | > 100 µM (inactive) | > 100 µM (inactive) | > 100 µM (inactive) | > 100 µM (inactive) | 92.7 µM (inactive) | > 100 µM (inactive) |
| COC(=O)CSSCc1ccc([N+](=O)[O-])cc1 | 3.93 µM (inactive) | 12.2 µM (inactive) | 21.8 µM (inactive) | 12.2 µM (inactive) | 19.1 µM (inactive) | 28.1 µM (inactive) | 18.7 µM (inactive) | 28.6 µM (inactive) | 21.2 µM (inactive) | 28.2 µM (inactive) | 26.5 µM (inactive) | 18.5 µM (inactive) | 7.33 µM (inactive) | 15.1 µM (inactive) | 3.08 µM (inactive) | 13.9 µM (inactive) | – | 18.4 µM (inactive) | 24.1 µM (inactive) |
| COC(=O)c1ccc2[nH]c3c(c2c1)CC(=O)Nc1ccccc1-3 | 1.31 µM (inactive) | > 100 µM (inactive) | 9.18 µM (inactive) | > 100 µM (inactive) | 12.4 µM (inactive) | > 100 µM (inactive) | > 100 µM (inactive) | 5.9 µM (inactive) | > 100 µM (inactive) | 26.2 µM (inactive) | > 100 µM (inactive) | > 100 µM (inactive) | > 100 µM (inactive) | > 100 µM (inactive) | 44.2 µM (inactive) | > 100 µM (inactive) | 0.673 µM (active) | – | > 100 µM (inactive) |
| COc1c(-c2ccc(F)cc2)oc2c(CC(=O)O)cccc2c1=O | > 100 µM (inactive) | – | > 100 µM (inactive) | > 100 µM (inactive) | > 100 µM (inactive) | > 100 µM (inactive) | > 100 µM (inactive) | > 100 µM (inactive) | > 100 µM (inactive) | > 100 µM (inactive) | > 100 µM (inactive) | > 100 µM (inactive) | > 100 µM (inactive) | – | > 100 µM (inactive) | > 100 µM (inactive) | – | > 100 µM (inactive) | > 100 µM (inactive) |
| CC(C)NC(NC(C)C)=C(S(=O)(=O)C(F)(F)C(F)(F)C(F)(F)C(F)(F)F)S(=O)(=O)C(F)(F)C(F)(F)C(F)(F)C(F)(F)F | > 100 µM (inactive) | > 100 µM (inactive) | > 100 µM (inactive) | > 100 µM (inactive) | > 100 µM (inactive) | > 100 µM (inactive) | > 100 µM (inactive) | > 100 µM (inactive) | > 100 µM (inactive) | > 100 µM (inactive) | > 100 µM (inactive) | > 100 µM (inactive) | > 100 µM (inactive) | > 100 µM (inactive) | > 100 µM (inactive) | > 100 µM (inactive) | > 100 µM (inactive) | – | > 100 µM (inactive) |
| CC(C)(C)c1cc(C=C(C#N)C#N)cc(C(C)(C)C)c1O [TYRPHOSTIN A9] | 0.374 µM (active) | 0.546 µM (active) | 0.344 µM (active) | 0.277 µM (active) | 1.56 µM (inactive) | 0.256 µM (active) | – | 0.303 µM (active) | 0.384 µM (active) | – | 0.281 µM (active) | 0.258 µM (active) | 0.391 µM (active) | 0.395 µM (active) | 0.682 µM (active) | 0.76 µM (active) | 0.724 µM (active) | 2.55 µM (inactive) | 0.135 µM (active) |
| COc1cc2c(c(OC)c1O)-c1ccc(OC)c(=O)cc1[C@@H](NC(=O)C(F)(F)F)CC2 | – | 0.0376 µM (active) | 0.173 µM (active) | 0.0474 µM (active) | 0.0413 µM (active) | 0.0706 µM (active) | 0.0352 µM (active) | 0.243 µM (active) | 0.019 µM (active) | 1.53 µM (inactive) | > 100 µM (inactive) | 0.0307 µM (active) | 0.0441 µM (active) | 0.0482 µM (active) | 0.229 µM (active) | 0.0206 µM (active) | > 26.1 µM (inactive) | – | > 100 µM (inactive) |
| N#C/C(N)=C(C#N)/N=C/Nc1ccccc1N | > 100 µM (inactive) | > 100 µM (inactive) | > 100 µM (inactive) | > 100 µM (inactive) | > 100 µM (inactive) | > 100 µM (inactive) | > 100 µM (inactive) | > 100 µM (inactive) | > 100 µM (inactive) | > 100 µM (inactive) | > 100 µM (inactive) | > 100 µM (inactive) | > 100 µM (inactive) | > 100 µM (inactive) | > 100 µM (inactive) | > 100 µM (inactive) | > 100 µM (inactive) | – | > 100 µM (inactive) |
| NC1CCC(N(CC(=O)O)CC(=O)O)C(N(CC(=O)O)CC(=O)O)C1 (stereo unspecified) | > 100 µM (inactive) | > 100 µM (inactive) | > 100 µM (inactive) | > 100 µM (inactive) | > 100 µM (inactive) | > 100 µM (inactive) | > 100 µM (inactive) | > 100 µM (inactive) | > 100 µM (inactive) | – | > 10 µM (inactive) | > 100 µM (inactive) | > 100 µM (inactive) | > 100 µM (inactive) | > 100 µM (inactive) | > 100 µM (inactive) | > 100 µM (inactive) | > 100 µM (inactive) | > 100 µM (inactive) |
| COC(=O)NC1C(C)OC(OC2C/C=C(/C)C3C=CC4C(OC5CC(OC6CC(OC7CC(O)C(O)C(C)O7)C(OC7CC(O)C(OC)C(C)O7)C(C)O6)C(O)C(C)O5)C(C)CC(C)C4C3(C)C(=O)C3=C(O)C4(CC(C)C(CO)=CC4/C=C\2C)OC3=O)CC1(C)[N+](=O)[O-] (stereo unspecified) | 6.15 µM (inactive) | 5.24 µM (inactive) | 11.6 µM (inactive) | 1.59 µM (inactive) | 12 µM (inactive) | 16.3 µM (inactive) | 11.3 µM (inactive) | 8.57 µM (inactive) | 6.85 µM (inactive) | 14.4 µM (inactive) | 9.89 µM (inactive) | – | 11.7 µM (inactive) | 6.7 µM (inactive) | 10.4 µM (inactive) | 9.64 µM (inactive) | 17.5 µM (inactive) | – | 7.78 µM (inactive) |
| CC/C=C\C=C/C(=O)N/C=C/CCC | 22.8 µM (inactive) | > 100 µM (inactive) | > 100 µM (inactive) | 38.9 µM (inactive) | > 100 µM (inactive) | 85.1 µM (inactive) | – | > 100 µM (inactive) | > 100 µM (inactive) | > 100 µM (inactive) | > 100 µM (inactive) | 58.3 µM (inactive) | 78.3 µM (inactive) | > 100 µM (inactive) | > 100 µM (inactive) | > 100 µM (inactive) | > 100 µM (inactive) | > 100 µM (inactive) | 62.8 µM (inactive) |
